Test results taken from the supplement of paper PMC11451515.

Test system: SEM cells
Experiment: cell viability relative to DMSO control; higher = less cytotoxic
Conditions: 48 h
In short: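 Viability was expressed as a per-plate percentage of DMSO wells, with cell-free wells as background. Leukemia cells (NOMO1 or SEM at 500 cells/well, P12-Ichikawa at 1000 cells/well) were adapted for at least four passages in each medium and seeded in 1536-well plates (5 μl). Library compounds in DMSO were pin-dosed over an 11-point threefold series from 47 μM to 0.79 nM, and CellTiter-Glo One luminescence was read after 48 h at 37°C.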

[1] = HPLM + 10% dialyzed FBS, 0.000781 µM
[2] = HPLM + 10% dialyzed FBS, 0.00234 µM
[3] = HPLM + 10% dialyzed FBS, 0.00702 µM
[4] = HPLM + 10% dialyzed FBS, 0.0211 µM
[5] = HPLM + 10% dialyzed FBS, 0.0632 µM
[6] = HPLM + 10% dialyzed FBS, 0.19 µM
[7] = HPLM + 10% dialyzed FBS, 0.569 µM
[8] = HPLM + 10% dialyzed FBS, 1.71 µM
[9] = HPLM + 10% dialyzed FBS, 5.12 µM
[10] = HPLM + 10% dialyzed FBS, 15.4 µM
[11] = HPLM + 10% dialyzed FBS, 46.1 µM
[12] = RPMI 5 mM glucose + 10% FBS, 0.000781 µM
[13] = RPMI 5 mM glucose + 10% FBS, 0.00234 µM
[14] = RPMI 5 mM glucose + 10% FBS, 0.00702 µM
[15] = RPMI 5 mM glucose + 10% FBS, 0.0211 µM
[16] = RPMI 5 mM glucose + 10% FBS, 0.0632 µM
[17] = RPMI 5 mM glucose + 10% FBS, 0.19 µM
[18] = RPMI 5 mM glucose + 10% FBS, 0.569 µM
[19] = RPMI 5 mM glucose + 10% FBS, 1.71 µM
[20] = RPMI 5 mM glucose + 10% FBS, 5.12 µM
[21] = RPMI 5 mM glucose + 10% FBS, 15.4 µM
[22] = RPMI 5 mM glucose + 10% FBS, 46.1 µM
[23] = RPMI 5 mM glucose + 10% dialyzed FBS, 0.000781 µM
[24] = RPMI 5 mM glucose + 10% dialyzed FBS, 0.00234 µM
[25] = RPMI 5 mM glucose + 10% dialyzed FBS, 0.00702 µM
[26] = RPMI 5 mM glucose + 10% dialyzed FBS, 0.0211 µM
[27] = RPMI 5 mM glucose + 10% dialyzed FBS, 0.0632 µM
[28] = RPMI 5 mM glucose + 10% dialyzed FBS, 0.19 µM
[29] = RPMI 5 mM glucose + 10% dialyzed FBS, 0.569 µM
[30] = RPMI 5 mM glucose + 10% dialyzed FBS, 1.71 µM
[31] = RPMI 5 mM glucose + 10% dialyzed FBS, 5.12 µM
[32] = RPMI 5 mM glucose + 10% dialyzed FBS, 15.4 µM
[33] = RPMI 5 mM glucose + 10% dialyzed FBS, 46.1 µM

Row | SMILES | cell viability [1] [%] | cell viability [2] [%] | cell viability [3] [%] | cell viability [4] [%] | cell viability [5] [%] | cell viability [6] [%] | cell viability [7] [%] | cell viability [8] [%] | cell viability [9] [%] | cell viability [10] [%] | cell viability [11] [%] | cell viability [12] [%] | cell viability [13] [%] | cell viability [14] [%] | cell viability [15] [%] | cell viability [16] [%] | cell viability [17] [%] | cell viability [18] [%] | cell viability [19] [%] | cell viability [20] [%] | cell viability [21] [%] | cell viability [22] [%] | cell viability [23] [%] | cell viability [24] [%] | cell viability [25] [%] | cell viability [26] [%] | cell viability [27] [%] | cell viability [28] [%] | cell viability [29] [%] | cell viability [30] [%] | cell viability [31] [%] | cell viability [32] [%] | cell viability [33] [%]
1 | Cc1ccc(F)c(NC(=O)Nc2ccc(-c3cccc4[nH]nc(N)c34)cc2)c1 | 91.7 | 92.7 | 86.3 | 76.2 | 59.5 | 56.7 | 55.1 | 62.9 | 64.9 | 64.2 | 14.4 | 73.4 | 84.4 | 80.3 | 69.9 | 49.7 | 48.4 | 41.7 | 56 | 48.8 | 29.9 | 1.63 | 87.5 | 91.3 | 82.1 | 71.1 | 65.8 | 48.7 | 60.6 | 61.7 | 57.6 | 43.5 | 8.13
2 | c1ccc2c(-c3cnn4cc(-c5ccc(N6CCNCC6)cc5)cnc34)ccnc2c1 | 75.6 | 78.2 | 121 | 125 | 139 | 130 | 122 | 100 | 2.9 | 1.26 | 2.65 | 84 | 71.6 | 140 | 138 | 153 | 122 | 121 | 97.1 | 61 | 7.66 | 3.32 | 69 | 72.2 | 118 | 147 | 151 | 142 | 114 | 89.2 | 66.7 | 45.9 | 3.66
3 | COC1=CC=C2C(=CC=NC2=C1)OC3=CC=C(NC(=O)\C4=C(C)\N(CC(C)(C)O)N(C4=O)C5=CC=CC=C5)C=C3F | 108 | 99.9 | 129 | 108 | 114 | 112 | 112 | 98.1 | 60.7 | 45.7 | 39.1 | 113 | 108 | 122 | 115 | 117 | 118 | 104 | 86.1 | 51.1 | 30.7 | 21.6 | 105 | 110 | 124 | 108 | 136 | 130 | 93.8 | 69.7 | 44.4 | 35.8 | 24.2
4 | C[C@H]1[C@@H](CC(C[C@H]2O[C@@H]3O[C@]4(C)CC[C@H]5[C@H](C)CC[C@@H]([C@H]2C)[C@@]35OO4)C[S+](=O)([O-])c2ccc(COC(=O)N(C)C)cc2)O[C@@H]2O[C@]3(C)CC[C@H]4[C@H](C)CC[C@@H]1[C@@]24OO3 | 96.1 | 91.3 | 97.2 | 99.8 | 102 | 89.3 | 72.9 | 5.9 | 7.11 | 6.96 | 4.59 | 101 | 103 | 91.3 | 115 | 106 | 108 | 23.9 | 6.39 | 7.58 | 7.01 | 5.47 | 109 | 112 | 94.1 | 105 | 107 | 104 | 27.5 | 6.28 | 6.52 | 6.47 | 4.61
5 | c1cc(OCCN2CCCCC2)cc(-c2n[nH]c3ccc(-c4nc[nH]n4)cc23)c1 | 109 | 102 | 113 | 107 | 120 | 105 | 82.8 | 57.6 | 99.9 | 87.8 | 60.4 | 95.9 | 99.9 | 104 | 97.8 | 107 | 110 | 90.6 | 54.4 | 97.3 | 92.1 | 47.6 | 83.9 | 105 | 99.3 | 119 | 126 | 107 | 103 | 48.8 | 89.4 | 76.7 | 53.7
6 | c1ccc2c(Oc3nc(Nc4ccc(N5CCOCC5)cc4)c4ncn(C5CCCCC5)c4n3)cccc2c1 | 91 | 96.7 | 101 | 112 | 120 | 116 | 131 | 120 | 99.7 | 100 | 67.1 | 101 | 122 | 138 | 133 | 133 | 136 | 125 | 139 | 108 | 105 | 67 | 108 | 141 | 115 | 130 | 142 | 129 | 126 | 109 | 126 | 110 | 53.4
7 | N#Cc1c(C2CCNCC2)cc(-c2c(O)cccc2OCC2CC2)nc1N | 108 | 106 | 107 | 109 | 114 | 115 | 108 | 108 | 100 | 77.4 | 34.2 | 103 | 107 | 106 | 115 | 121 | 110 | 97.3 | 118 | 102 | 82.8 | 29 | 98.7 | 108 | 104 | 104 | 106 | 108 | 101 | 98.1 | 85.3 | 72.6 | 43.7
8 | C[Se]CCC(N)C(=O)O (centres undefined) | 50.5 | 87.2 | 86.1 | 94.7 | 75.6 | 71.3 | 82.8 | 71.5 | 86.4 | 78.1 | 72 | 65.1 | 83.9 | 107 | 95.4 | 89.8 | 95 | 85.9 | 88.5 | 103 | 100 | 98.1 | 51.5 | 100 | 96.6 | 94.4 | 73.1 | 101 | 90.4 | 84.1 | 94.2 | 100 | 88.7
9 | CC1(C)OC/2=C(\[C@H](NCC3=CC=CC=C3)[C@@H]1O)C(=O)C4=CC=CC=C4C2=O | 103 | 95.6 | 91 | 115 | 98.4 | 111 | 106 | 110 | 83.6 | 41.1 | 9.15 | 80.9 | 71.7 | 98.4 | 83.9 | 94.1 | 91.9 | 108 | 99.7 | 54.2 | 24.5 | 5.4 | 96.8 | 74.4 | 109 | 97.7 | 94.4 | 106 | 109 | 92.5 | 83.4 | 48.1 | 8.42
10 | c1cc(-c2sc(-c3ccncc3)c(-c3ccncc3)c2-c2ccncc2)ccn1 | 90.9 | 107 | 108 | 110 | 106 | 116 | 107 | 82.4 | 43.3 | 20.7 | 14.9 | 89.6 | 87.8 | 93.9 | 89.3 | 106 | 97.9 | 101 | 63.5 | 29.6 | 17.9 | 13.2 | 102 | 101 | 118 | 113 | 106 | 110 | 103 | 67.3 | 41 | 22.4 | 15.1
11 | CCC1=C(C)CN(C(=O)NCCc2ccc(S(=O)(=O)NC(=O)N[C@H]3CC[C@H](C)CC3)cc2)C1=O | 78.7 | 91.5 | 93.2 | 93.3 | 86.4 | 104 | 103 | 109 | 114 | 104 | 116 | 81.1 | 92.2 | 95 | 85.5 | 93 | 92.6 | 94.8 | 100 | 94.7 | 92.6 | 94.7 | 94.9 | 87.6 | 101 | 86.2 | 93.7 | 94.8 | 96.1 | 87.7 | 94.3 | 96 | 94.1
12 | Cn1cc(-c2ccncc2)c(-c2ccc(OCc3ccc4ccccc4n3)cc2)n1 | 124 | 127 | 95 | 134 | 132 | 123 | 116 | 124 | 125 | 110 | 110 | 123 | 126 | 102 | 118 | 118 | 125 | 122 | 124 | 95.3 | 81.1 | 82.4 | 94.6 | 108 | 89.7 | 112 | 98 | 102 | 112 | 110 | 103 | 96.8 | 64.3
13 | CC(=O)SCC(Cc1ccccc1)C(=O)NCC(=O)OCc1ccccc1 (centres undefined) | 86.1 | 79.1 | 93.3 | 96.4 | 99 | 103 | 105 | 97.4 | 108 | 108 | 102 | 84.9 | 77.2 | 97.1 | 94 | 96 | 92.5 | 98.3 | 99.8 | 95.7 | 91.2 | 90.1 | 77.4 | 77.6 | 82.1 | 104 | 109 | 104 | 115 | 114 | 108 | 116 | 96.9
14 | CC(C)(Cc1ccc2ccccc2c1)NC[C@@H](O)COc1cccc(Cl)c1C#N | 128 | 121 | 125 | 121 | 124 | 123 | 119 | 120 | 108 | 96.7 | 65.7 | 127 | 113 | 120 | 116 | 124 | 121 | 115 | 126 | 86 | 128 | 62.8 | – | – | – | – | – | – | – | – | – | – | –
15 | C=C1C[C@@]2(O)O[C@@]3(C[C@H]2C(C)C)[C@@H](C)CC[C@@H]13 | 90.3 | 85.5 | 68.4 | 109 | 105 | 108 | 23.6 | 41 | 100 | 108 | 95.1 | 117 | 109 | 78.5 | 125 | 113 | 122 | 21.8 | 41.5 | 116 | 108 | 111 | 81.8 | 110 | 77.2 | 97.3 | 96 | 104 | 21.5 | 29.9 | 105 | 111 | 93.2
